One experiment has as its system KASUMI-1 cells. Description: Kasumi cell assay (CellTiter-Glo cell growth). The following applies: Homo sapiens, Kasumi 1; treated for 120 hours, CellTiter-Glo luminescence; read-out: KASUMI1 cells IC50. Type of experiment: cell-based. The method, then:
Upon treatment, Kasumil cells were incubated for 10 min at RT with the CellTiter-Glo reagent (G7571, Promega). Measurement of the luminescence signal was performed on a microplate reader (Ensight, PerkinElmer).

The test system of another experiment is Caov-3 cells. Description: Caov3 CTG proliferation assay. The note with it: Homo sapiens, Caov-3; treated for 120 hours, CellTiter-Glo luminescence; read-out: Caov3 cells IC50. Type of experiment: cell-based. As to the method: CTG Assay (Caov3 Cell Line)
Upon treatment, Coav-3 cells were incubated for 10 min at RT with the CellTiter-Glo reagent (G7571, Promega). Measurement of the luminescence signal was performed on a microplate reader (Ensight, PerkinElmer).
Caov3 CTG Assay—Proliferation Assay

Experiment [1] deals with T1, METTL3/14 (Homo sapiens (Human), UniProt Q86U44).
T1 sequence (Q86U44 whole entry): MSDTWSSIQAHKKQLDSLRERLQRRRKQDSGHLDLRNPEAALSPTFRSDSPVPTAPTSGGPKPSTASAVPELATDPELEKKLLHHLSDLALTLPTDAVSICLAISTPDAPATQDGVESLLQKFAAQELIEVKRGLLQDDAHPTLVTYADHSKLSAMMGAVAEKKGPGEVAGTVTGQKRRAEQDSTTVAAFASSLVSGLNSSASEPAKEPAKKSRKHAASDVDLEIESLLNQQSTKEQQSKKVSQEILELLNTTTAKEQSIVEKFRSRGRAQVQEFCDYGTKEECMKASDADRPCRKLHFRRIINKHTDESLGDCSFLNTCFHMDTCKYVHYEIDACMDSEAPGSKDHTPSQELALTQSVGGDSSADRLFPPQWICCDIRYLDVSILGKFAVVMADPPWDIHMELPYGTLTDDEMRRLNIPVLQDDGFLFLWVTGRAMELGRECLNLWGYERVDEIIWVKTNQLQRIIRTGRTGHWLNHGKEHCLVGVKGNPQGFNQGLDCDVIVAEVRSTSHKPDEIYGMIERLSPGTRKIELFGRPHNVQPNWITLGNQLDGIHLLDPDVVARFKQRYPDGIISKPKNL
T1 sequence (Q9HCE5 whole entry partner): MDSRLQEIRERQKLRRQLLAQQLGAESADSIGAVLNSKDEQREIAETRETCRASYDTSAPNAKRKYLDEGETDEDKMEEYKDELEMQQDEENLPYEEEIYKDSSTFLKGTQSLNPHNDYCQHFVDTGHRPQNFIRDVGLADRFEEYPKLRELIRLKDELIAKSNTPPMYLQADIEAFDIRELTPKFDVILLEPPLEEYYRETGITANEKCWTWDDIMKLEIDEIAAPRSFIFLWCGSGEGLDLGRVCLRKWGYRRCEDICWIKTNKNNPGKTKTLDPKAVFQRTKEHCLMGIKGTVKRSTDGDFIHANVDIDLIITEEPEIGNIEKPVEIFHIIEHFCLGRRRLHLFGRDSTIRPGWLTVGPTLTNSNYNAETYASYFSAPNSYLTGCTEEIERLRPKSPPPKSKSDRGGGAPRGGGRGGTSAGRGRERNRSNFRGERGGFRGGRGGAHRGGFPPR
Experiment [2] concerns the target T1, METTL3/14. Briefly: biochemical.

The structures appear in SMILES notation. Where two headings read alike, the source gives them in different places. Bounds are passed on as bounds.

`O=C(NCc1cc2[nH]c(CN3CCC4(CCC4)C3)cc2cn1)c1cc(=O)n2ccccc2n1` [Compound 145, N-((2-((6-azaspiro[3.4]octan-6-yl)methyl)-1H-pyrrolo[3,2-c]pyridin-6-yl)methyl)-4-oxo-4H-pyrido[1,2-a]pyrimidine-2-carboxamide]: the half-inhibitory concentration (IC50) was 717 nM in the experiment on KASUMI-1 cells, 201 nM in the experiment on Caov-3 cells and less than 6.1 nM against METTL3/14 [1].
For `O=C(NCc1ccc2cc(CNCC3CCC3)[nH]c2c1)c1cc(=O)n2ccccc2n1` [Example 2, N-[(2-{[(cyclobutylmethyl)amino]methyl}-1H-indol-6-yl)methyl]-4-oxo-4H-pyrido[1,2-a]pyrimidine-2-carboxamide], the IC50 in the experiment with KASUMI-1 cells amounted to 587 nM; in the experiment on Caov-3 cells, 237 nM; against METTL3/14 [1] it was 6.1 nM.
For `O=C(NCc1ccc2c(F)c(CNCC3CCC3)[nH]c2c1)c1cc(=O)n2ccccc2n1` [Example 45, N-[(2-{[(cyclobutylmethyl)amino]methyl}-3-fluoro-1H-indol-6-yl)methyl]-4-oxo-4H-pyrido[1,2-a]pyrimidine-2-carboxamide], the results for the IC50 with KASUMI-1 cells, in the experiment on Caov-3 cells and against METTL3/14 [1] were 764 nM, 574 nM and 6.1 nM, respectively.
For `[2H]C([2H])(NCC1CCC1)c1cc2ccc(CNC(=O)c3cc(=O)n4ccccc4n3)cc2[nH]1` [Example 47, N-[[2-[(Cyclobutylmethylamino)-dideuterio-methyl]-1H-indol-6-yl]methyl]-4-oxo-pyrido[1,2-a]pyrimidine-2-carboxamide] the same measures were 344 nM, 186 nM and 6.1 nM.
Regarding `c1cc(-c2cn(Cc3cc4[nH]c(CNCC5CCC5)cc4cn3)nn2)c2cn[nH]c2c1` [Example 60, N-(cyclobutylmethyl)-1-[6-[[4-(1H-indazol-4-yl)triazol-1-yl]methyl]-1H-pyrrolo[3,2-c]pyridin-2-yl]methanamine], the IC50 with KASUMI-1 cells is 2180 nM; with Caov-3 cells, 423 nM; at METTL3/14 [1], 6.1 nM.
In the same order, the values of `CC1(NCc2cc3ccc(CNC(=O)c4cc(=O)n5ccccc5n4)cc3[nH]2)CCCC1` [Example 114, N-[(2-{[(1-methylcyclopentyl)amino]methyl}-1H-indol-6-yl)methyl]-4-oxo-4H-pyrido[1,2-a]pyrimidine-2-carboxamide] are 1460 nM, 679 nM and 6.1 nM.
For `FC12CC(CNCc3cc4ccc(Cn5cc(-c6cccn7cncc67)nn5)cc4[nH]3)(C1)C2` [Example 124, ({3-fluorobicyclo[1.1.1]pentan-1-yl}methyl)({6-[(4-{imidazo[1,5-a]pyridin-8-yl}-1H-1,2,3-triazol-1-yl)methyl]-1H-indol-2-yl}methyl)amine] the same measures were 662 nM, 266 nM and 6.1 nM.
In the case of `O=C(NCc1ccc2cc(CNCC34CC(F)(C3)C4)[nH]c2c1)c1cc(=O)n2ccsc2n1` [Example 125, N-[(2-{[({3-fluorobicyclo[1.1.1]pentan-1-yl}methyl)amino]methyl}-1H-indol-6-yl)methyl]-5-oxo-5H-[1,3]thiazolo[3,2-a]pyrimidine-7-carboxamide], the 50% inhibitory concentration (IC50) was determined as 504 nM in the experiment on KASUMI-1 cells, 212 nM in the experiment with Caov-3 cells and 6.1 nM against METTL3/14 [1].
For the compound `O=C(NCc1cnc2cc(CNCC34CC(C3)C4)[nH]c2c1)c1cc(=O)n2ccccc2n1` [Example 126, N-[(2-{[({bicyclo[1.1.1]pentan-1-yl}methyl)amino]methyl}-1H-pyrrolo[3,2-b]pyridin-6-yl)methyl]-4-oxo-4H-pyrido[1,2-a]pyrimidine-2-carboxamide], the IC50 in the experiment on KASUMI-1 cells worked out at 3070 nM; in the experiment on Caov-3 cells, 523 nM; at METTL3/14 [1] it was 6.1 nM.
`c1cc(-n2cc(Cc3ccc4cc(CNCC5CCC5)[nH]c4c3)nn2)c2cncn2c1` [Example 144, (cyclobutyl-methyl)({6-[(1-{imidazo[1,5-a]pyridin-8-yl}-1H-1,2,3-triazol-4-yl)methyl]-1H-indol-2-yl}methyl) amine] yielded a 50% inhibitory concentration (IC50) at METTL3/14 [2] of 19.3 nM.
As to `c1cc(-c2cn(Cc3cc4[nH]c(CN5CCC6(CCC6)C5)cc4cn3)nn2)c2cncn2c1` [Example 155, 2-((6-azaspiro[3.4]octan-6-yl)methyl)-6-((4-(imidazo[1,5-a]pyridin-8-yl)-1H-1,2,3-triazol-1-yl)methyl)-1H-pyrrolo[3,2-c]pyridine], the IC50 was 547 nM in the experiment on KASUMI-1 cells, 473 nM with Caov-3 cells and less than 6.1 nM against METTL3/14 [1].

The values above are taken from patent US11725010B2, “Polyheterocyclic compounds as METTL3 inhibitors” (Storm Therapeutics Limited, priority 2019, dated 2023).
